PubChem BioAssay (NCI)
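1) Cells in 96-well plates. 2) Compound, 48 h, 5 concentrations. 3) Linear interpolation between surrounding doses. 4) Unreached endpoint = highest concentration. At the GI50, growth is halved. Definition used: TGI = concentration required for complete inhibition of growth.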

How the values were obtained:
Test in all cases: inhibition of tumour cell growth, NCI panel, 48 h
NCI-H226 lung = tested on: NCI-H226 lung
NCI-H23 lung = tested on: NCI-H23 lung
NCI-H460 lung = tested on: NCI-H460 lung
NCI-H522 lung = tested on: NCI-H522 lung
NCI/ADR-RES ovarian = tested on: NCI/ADR-RES ovarian
OVCAR-3 ovarian = tested on: OVCAR-3 ovarian
OVCAR-4 ovarian = tested on: OVCAR-4 ovarian
OVCAR-5 ovarian = tested on: OVCAR-5 ovarian
OVCAR-8 ovarian = tested on: OVCAR-8 ovarian
PC-3 prostate = tested on: PC-3 prostate
RPMI-8226 leukemia = tested on: RPMI-8226 leukemia
RXF 393 renal = tested on: RXF 393 renal
SF-268 CNS = tested on: SF-268 CNS
SF-295 CNS = tested on: SF-295 CNS
SF-539 CNS = tested on: SF-539 CNS
SK-MEL-2 melanoma = tested on: SK-MEL-2 melanoma
SK-MEL-28 melanoma = tested on: SK-MEL-28 melanoma
SK-MEL-5 melanoma = tested on: SK-MEL-5 melanoma
SK-OV-3 ovarian = tested on: SK-OV-3 ovarian
SN12C renal = tested on: SN12C renal
SNB-19 CNS = tested on: SNB-19 CNS
SNB-75 CNS = tested on: SNB-75 CNS
SR leukemia = tested on: SR leukemia
SW-620 colon = tested on: SW-620 colon
T-47D breast = tested on: T-47D breast
TK-10 renal = tested on: TK-10 renal
U251 CNS = tested on: U251 CNS
UACC-257 melanoma = tested on: UACC-257 melanoma
UACC-62 melanoma = tested on: UACC-62 melanoma
UO-31 renal = tested on: UO-31 renal

Compound: O=C(N/N=C/c1ccc(Br)o1)c1[nH]c2ccc(Br)cc2c1-c1ccccc1
- TGI (NCI-H226 lung): 6320 nM
- GI50 (NCI-H23 lung): 393 nM
- TGI (NCI-H23 lung): 29300 nM
- GI50 (NCI-H460 lung): 326 nM
- TGI (NCI-H460 lung): 10800 nM
- GI50 (NCI-H522 lung): 177 nM
- TGI (NCI-H522 lung): 549 nM
- GI50 (NCI/ADR-RES ovarian): 231 nM
- TGI (NCI/ADR-RES ovarian): 583 nM
- GI50 (OVCAR-3 ovarian): 415 nM
- TGI (OVCAR-3 ovarian): 17100 nM
- GI50 (OVCAR-4 ovarian): 5390 nM
- TGI (OVCAR-4 ovarian): > 53300 nM
- GI50 (OVCAR-5 ovarian): 372 nM
- TGI (OVCAR-5 ovarian): 22000 nM
- GI50 (OVCAR-8 ovarian): 297 nM
- TGI (OVCAR-8 ovarian): 2830 nM
- GI50 (PC-3 prostate): 398 nM
- TGI (PC-3 prostate): > 53800 nM
- GI50 (RPMI-8226 leukemia): 415 nM
- TGI (RPMI-8226 leukemia): > 100000 nM
- GI50 (RXF 393 renal): 443 nM
- TGI (RXF 393 renal): 21400 nM
- GI50 (SF-268 CNS): 861 nM
- TGI (SF-268 CNS): > 52900 nM
- GI50 (SF-295 CNS): 353 nM
- TGI (SF-295 CNS): > 38600 nM
- GI50 (SF-539 CNS): 226 nM
- TGI (SF-539 CNS): 562 nM
- GI50 (SK-MEL-2 melanoma): 407 nM
- TGI (SK-MEL-2 melanoma): > 100000 nM
- GI50 (SK-MEL-28 melanoma): 1120 nM
- TGI (SK-MEL-28 melanoma): 46900 nM
- GI50 (SK-MEL-5 melanoma): 204 nM
- TGI (SK-MEL-5 melanoma): 424 nM
- GI50 (SK-OV-3 ovarian): 731 nM
- TGI (SK-OV-3 ovarian): > 65400 nM
- GI50 (SN12C renal): 377 nM
- TGI (SN12C renal): 14200 nM
- GI50 (SNB-19 CNS): 455 nM
- TGI (SNB-19 CNS): > 81800 nM
- GI50 (SNB-75 CNS): 464 nM
- TGI (SNB-75 CNS): 22800 nM
- GI50 (SR leukemia): 345 nM
- TGI (SR leukemia): 22400 nM
- GI50 (SW-620 colon): 374 nM
- TGI (SW-620 colon): 22900 nM
- GI50 (T-47D breast): 4180 nM
- TGI (T-47D breast): > 100000 nM
- GI50 (TK-10 renal): 5310 nM
- TGI (TK-10 renal): > 46500 nM
- GI50 (U251 CNS): 337 nM
- TGI (U251 CNS): 16900 nM
- GI50 (UACC-257 melanoma): 2690 nM
- TGI (UACC-257 melanoma): > 100000 nM
- GI50 (UACC-62 melanoma): 395 nM
- TGI (UACC-62 melanoma): > 76500 nM
- GI50 (UO-31 renal): 679 nM
- TGI (UO-31 renal): 28800 nM
